In PubChem BioAssay (NCI):
Several values for one entry are separate records, joined by “and”; a condition that tells them apart may be missing. Identical values can stand only once.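 Exposure lasted 48 hours, with cells grown in 96-well plates and compounds tested at five concentrations. At the GI50, growth is halved. TGI: total growth inhibition.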 *1 amine or outer side, *2 acyl side, *3 side chain or, on linkers, in order; H or OH if unused. Where a SMILES comes first, the peptide text is derived from it. Bridges are numbered along the chain shown (N, C = ends). Roman numbers before positions name the chains, in order. [ ]: non-standard residue; d: D form. Actinocin(1to9) = Cc1c2oc3c(C)ccc(C(=O)[*:2])c3nc-2c(C(=O)[*:1])c(N)c1=O; NMeV = CN[CH](C(=O)O)C(C)C; Sar = CNCC(=O)O

Experiments:
Assay in all cases: NCI tumour cell line growth inhibition, 48 h
NCI-H226 lung = system: NCI-H226 lung
OVCAR-4 ovarian = system: OVCAR-4 ovarian
UACC-257 melanoma = system: UACC-257 melanoma
MOLT-4 leukemia = system: MOLT-4 leukemia
CCRF-CEM leukemia = system: CCRF-CEM leukemia
MDA-MB-231 breast = system: MDA-MB-231 breast

SMILES | TGI (NCI-H226 lung) | TGI (OVCAR-4 ovarian) | TGI (UACC-257 melanoma) [µM] | TGI (MOLT-4 leukemia) [µM] | TGI (CCRF-CEM leukemia) [µM] | TGI (MDA-MB-231 breast) [µM] | GI50 (NCI-H226 lung) [µM] | GI50 (OVCAR-4 ovarian) [µM]
O=C1NC(=Nc2ccccc2Cl)N/C1=C\c1c(Cl)cccc1Cl | > 100 µM | 49.3 µM | 79.8 | > 100 | > 100 | – | – | –
CCc1n[nH]c(=O)n1-n1c(C)ccc1C | > 100 µM | > 100 µM | > 100 | > 100 | > 100 | > 100 | – | –
COC(=O)c1ccccc1/C=C1\Cc2ccc3c(c2C1=O)CCC3 | > 100 µM | > 100 µM | > 100 | > 100 | > 100 | > 100 | – | –
NC(=S)NN=Cc1ccccc1OCc1cccc(COc2ccccc2C=NNC(N)=S)n1 | > 89.6 µM | > 100 µM | > 100 | > 100 | > 100 | 22.3 | – | –
CC(NC1=NCCO1)c1ccsc1 (stereo unspecified) | > 100 µM | > 100 µM | 40.2 | 52.3 | 46.5 | 35.6 | – | –
O=c1c2c3c(sc2nc2n1sc1nc4sc5c(c4c(=O)n12)CCCC5)CCCC3 | 98.1 µM | 37.2 µM | > 100 | > 66.9 | 60.7 | > 69.5 | – | –
COc1ccc(C[C@@H]2OC3(C=CC(=O)CC3Sc3ccccc3)O[C@H]2Cc2ccc(OC)cc2)cc1 (stereo partly specified) | 3.33 µM | 3.7 µM | 3.16 | 2.18 | 0.768 | 7.35 | – | –
CC(=O)OC1CCn2c1nc1c2C(=O)C=C(N2CC2)C1=O (stereo unspecified) | 6 µM | 0.231 µM | 1.02 | 0.208 | 1.17 | 3.92 | – | –
CNc1ccc(C)cc1S(=O)(=O)c1ccccc1[N+](=O)[O-] | > 100 µM | 92 µM | – | > 100 | > 100 | > 100 | – | –
O=C(CNc1ccc([N+](=O)[O-])cc1)Nn1c(-c2ccccc2)nc2ccccc2c1=O | 25.2 µM | 10.3 µM | 36.7 | 10.6 | > 21.6 | 9.4 | – | –
CSc1ccccc1NC1=NCCO1 | > 100 µM | > 100 µM | > 100 | > 100 | > 100 | > 100 | – | –
C[Si](C)(C)CCOCN(C(=O)C1=CCC2(CC1)OCCO2)c1ccccc1I | 53.8 µM | 45.5 µM | 54.3 | 98.7 | 79.5 | 56.6 | – | –
C#CCC(O)c1ccc(OC)c(OCc2ccccc2)c1 (stereo unspecified) | > 100 µM | > 100 µM | > 100 | 56.6 | > 100 | > 100 | – | –
O=S(=O)(N=[Se](=O)(c1ccccc1)c1ccccc1)c1ccccc1 | > 100 µM | > 100 µM | – | > 100 | > 100 | > 100 | – | –
CC1(C)COC(c2cccc(C(O)c3ccc(Cl)cc3)c2)=N1 (stereo unspecified) | 33.5 µM | > 100 µM | – | 59.3 | > 100 | > 100 | – | –
O=S(=O)(Cc1ccccc1)c1nnc(S(=O)(=O)c2ccc(Cl)cc2)s1 | – | > 100 µM | 48.8 | > 100 | – | 91.7 | – | –
Cc1cccc2c(N)c3cccc(C(=O)NCCNCCN)c3nc12 | – | 19.1 µM | 99.3 | > 96.1 | > 100 | 36.1 | – | –
C=C(C)C1Cc2c(cc3c(c2O)c(=O)c2ccccc2n3C)O1 (stereo unspecified) | 6.77 µM | 22.3 µM | 30.7 | 1.99 | – | 6.72 | – | –
c1ccc(CN2C3C4N(Cc5ccccc5)C2C2N(Cc5ccccc5)C(C(N2Cc2ccccc2)N4Cc2ccccc2)N3Cc2ccccc2)cc1 | > 100 µM | – | > 100 | > 100 | > 100 | > 100 | – | –
COC(=O)CSc1cc(Cl)c(C)cc1S(=O)(=O)Nc1n[nH]c(N)n1 | > 10 µM | > 10 µM | > 10 | > 10 | > 10 | – | – | –
O=C(Cn1c2ccc(Br)cc2c2nc3ccccc3nc21)NNC(=O)NC1CCCCC1 | – | 42.9 µM | > 100 | 67.1 | 76.1 | > 100 | – | –
CCOC(=O)/C1=C(\C)N(Cc2ccccc2)C(=O)c2ccccc2C(=O)c2c(OC(C)=O)ccc(OC(C)=O)c21 | – | > 100 µM | > 100 | > 100 | > 100 | > 100 | – | –
O=c1nc(N2CCCCC2)sc2[nH]c3ccccc3c12 | – | > 100 µM | > 100 | > 100 | – | > 100 | – | –
O=C(Cc1csc2[n+]1C(=O)/C(=C/c1ccc(Cl)cc1)S2)Nc1ccccc1 | 49.6 µM | > 100 µM | 58.3 | – | > 100 | 37.3 | – | –
COc1ccc(CC2NC(=O)C(NC(=O)c3c4nc5c(C(=O)NC6C(=O)NC(Cc7ccc(OC)cc7)C(=O)N7CCCC7C(=O)N(C)CC(=O)N(C)C(C(C)C)C(=O)OC6C)ccc(C)c5oc-4c(C)c(=O)c3N)C(C)OC(=O)C(C(C)C)N(C)C(=O)CN(C)C(=O)C3CCCN3C2=O)cc1 (stereo unspecified) (I: TY(Me)P[Sar][NMeV] / II: TY(Me)P[Sar][NMeV]; ester I:1-I:C, II:1-II:C; linker I:N-II:N via Actinocin(1to9); configuration not given here) | 0.0228 µM and 0.0527 µM | 0.49 µM and 0.224 µM | 0.0349 | – | 0.0418 | 0.731 | < 0.001 | 0.0138
O=C(O[C@H](/C=C/c1ccccc1)P1(=O)N(Cc2ccccc2)[C@H]2CCCC[C@@H]2N1Cc1ccccc1)c1ccccc1 | 7.85 µM | 6.19 µM | > 100 | – | > 100 | 25.7 | – | –
CC(=O)OC[C@@]1(C)[C@@H]2[C@@H]3[C@@]4(CO[C@]3(C)C(=O)[C@@]3(OC(C)=O)C[C@H](C)[C@H](OC(C)=O)[C@@H]3[C@H]4OC(C)=O)[C@H](OC(=O)c3ccccc3)C[C@@H]21 | > 100 µM | > 100 µM | > 100 | – | > 100 | > 100 | – | –
Cc1ccc(S(=O)(=O)NC(=O)NC(CCCCN)C(=O)O)cc1 (stereo unspecified) | – | > 100 µM | > 100 | > 100 | > 100 | > 100 | – | –
CCN(CC)CCC(=O)c1ccc(Cl)c(Cl)c1 | > 100 µM | > 100 µM | > 100 | 82.8 | 50.5 | – | – | –
